Measured values taken from ChEMBL document CHEMBL1944591, “Synthesis and biological evaluation of quinazoline and quinoline bearing 2,2,6,6-tetramethylpiperidine-N-oxyl as potential epidermal growth factor receptor(EGFR) tyrosine kinase inhibitors and EPR bio-probe agents” (Eur J Med Chem, 2012).

Experiments:
[1] = target: T1, Epidermal growth factor receptor (Homo sapiens, UniProt P00533); conditions: at 10 µM
[2] = target: T1, Epidermal growth factor receptor; test: Inhibition of EGFR after 50 mins by HTRF assay
A-431 [3] = test: Cytotoxicity against human A431 cells after 72 hrs by MTT assay; format: functional, cell-based
A-431 [4] = test: Cellular uptake in human A431 cells after 8 hrs by EPR spectroscopy; format: ADME, cell-based; conditions: a-431, 8 h
A-431 [5] = test: Cytotoxicity against human A431 cells at 300 uM after 72 hrs by MTT assay; format: functional; conditions: A-431, 72 h

T1 sequence (P00533 whole entry): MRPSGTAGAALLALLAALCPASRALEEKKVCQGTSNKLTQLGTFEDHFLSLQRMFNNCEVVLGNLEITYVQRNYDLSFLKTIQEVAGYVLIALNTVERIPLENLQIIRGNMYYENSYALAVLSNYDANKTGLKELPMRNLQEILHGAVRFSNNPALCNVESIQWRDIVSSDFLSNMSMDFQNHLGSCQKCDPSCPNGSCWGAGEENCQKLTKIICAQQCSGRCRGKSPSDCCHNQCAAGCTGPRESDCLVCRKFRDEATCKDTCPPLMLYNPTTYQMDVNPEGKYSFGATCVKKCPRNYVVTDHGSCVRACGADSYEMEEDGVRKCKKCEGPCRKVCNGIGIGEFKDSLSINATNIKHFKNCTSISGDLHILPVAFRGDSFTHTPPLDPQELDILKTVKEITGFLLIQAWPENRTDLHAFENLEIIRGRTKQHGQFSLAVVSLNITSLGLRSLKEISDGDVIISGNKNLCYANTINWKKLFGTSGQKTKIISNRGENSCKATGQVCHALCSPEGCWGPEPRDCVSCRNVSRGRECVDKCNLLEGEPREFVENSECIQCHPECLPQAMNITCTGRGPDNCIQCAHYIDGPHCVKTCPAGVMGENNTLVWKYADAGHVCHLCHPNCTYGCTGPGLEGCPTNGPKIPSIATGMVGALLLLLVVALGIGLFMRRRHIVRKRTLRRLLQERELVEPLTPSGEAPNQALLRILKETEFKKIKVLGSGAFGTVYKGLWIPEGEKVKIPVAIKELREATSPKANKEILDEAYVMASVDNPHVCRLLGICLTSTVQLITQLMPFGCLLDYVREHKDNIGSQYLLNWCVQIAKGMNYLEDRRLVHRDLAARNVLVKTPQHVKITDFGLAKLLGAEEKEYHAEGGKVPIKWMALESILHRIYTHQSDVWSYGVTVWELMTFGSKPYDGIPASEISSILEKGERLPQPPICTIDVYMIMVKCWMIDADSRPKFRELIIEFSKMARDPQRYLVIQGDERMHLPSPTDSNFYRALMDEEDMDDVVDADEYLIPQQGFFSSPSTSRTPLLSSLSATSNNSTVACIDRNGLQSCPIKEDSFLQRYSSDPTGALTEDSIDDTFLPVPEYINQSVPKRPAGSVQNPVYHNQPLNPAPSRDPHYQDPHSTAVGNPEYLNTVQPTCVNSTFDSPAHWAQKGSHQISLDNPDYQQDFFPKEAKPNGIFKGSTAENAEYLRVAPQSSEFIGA

| Compound | inhibition [1] [%] | IC50 [2] [µM] | IC50 (A-431 [3]; Homo sapiens, A-431, 72 h) [µM] | Drug uptake (A-431 [4]) | IC50 (A-431 [3]; a-431) [µM] | inhibition at 300 µM (A-431 [5]) [%] |
| --- | --- | --- | --- | --- | --- | --- |
| CC1(C)CC(C(=O)Nc2ccc3ncnc(Nc4cccc(Br)c4)c3c2)CC(C)(C)N1[O] | 99.4 | 0.031 | 27.4 | – | – | – |
| COc1cc2ncc(C(=O)NC3CC(C)(C)N([O])C(C)(C)C3)c(Nc3cccc(Br)c3)c2cc1OC | 90.3 | 0.342 | 43.2 | – | – | – |
| COc1cc2ncc(C(=O)NC3CC(C)(C)N([O])C(C)(C)C3)c(Nc3ccc(F)c(Cl)c3)c2cc1OC | 92.8 | 0.422 | 38.1 | Active | – | – |
| COc1cc2ncc(C(=O)O)c(Nc3cccc(Br)c3)c2cc1OC | 60.1 | 8.72 | 94 | – | – | – |
| CC1(C)CC(C(=O)Nc2ccc3ncnc(Nc4ccc(F)c(Cl)c4)c3c2)CC(C)(C)N1[O] | 99.5 | 0.015 | 24.7 | Active | – | – |
| COc1cc2ncc(C(=O)O)c(Nc3cccc(Cl)c3)c2cc1OC | – | – | 97.9 | – | – | – |
| Nc1ccc2ncnc(Nc3cccc(Br)c3)c2c1 | – | – | 34.9 | – | – | – |
| CC1(C)CC(C(=O)Nc2ccc3ncnc(Nc4cccc(Cl)c4)c3c2)CC(C)(C)N1[O] | 99.4 | 0.065 | 26.9 | – | – | – |
| Nc1ccc2ncnc(Nc3ccc(F)c(Cl)c3)c2c1 | 99.5 | 0.029 | – | – | – | – |
| COc1cc2ncc(C(=O)NC3CC(C)(C)N([O])C(C)(C)C3)c(Nc3cccc(Cl)c3)c2cc1OC | 88.3 | 0.623 | 45.5 | – | – | – |
| COc1cc2ncc(C(=O)O)c(Nc3ccc(F)c(Cl)c3)c2cc1OC | 66.5 | 9.28 | 88.8 | – | – | – |
| Nc1ccc2ncnc(Nc3cccc(Cl)c3)c2c1 | 98.9 | – | – | – | 31.9 | – |
| CC1(C)CCCC(C)(C)N1[O] | – | – | > 300 | – | – | < 50 |
